Results on 2 compounds are retold here after US6331642A, “Vitamin D3 analogs” (Hoffmann-La Roche Inc., priority 2000, dated 2001).

Like-named read-outs stand apart in the source and are kept apart here.

The subject of one data set is p27^kip1. Briefly: Western blot analysis, p27^kip1 in MCF-7 cells. It counts as cell-based. The conditions noted are these: Homo sapiens, read-out: increase in expression of p27^kip1. Here is the method:
Western Blot Analysis. Cells were washed twice with PBS, suspended in Lysis buffer (50 mM Tris Ph 8.0, 150 mM NaCl, 0.1% SDS, 0.5% sodium deoxycholate, 1% NP40, 100 μg/ml phenylmethylsulfonyl fluoride, 2 μg/ml aprotinin, 1 μg/ml pepstatin and 10 μg/ml leupeptin), and placed on ice for 30 minutes. After centrifugation at 15,000 g for 20 minutes at 4° C., the supernatant was collected. Protein concentrations were quantitated. Whole lysates (15 μg) were resolved by 15% sodium dodecyl sulphate polyacrylamide gel, were transferred to an immobilon polyvinylidene difuride membrane and were probed with anti-p27^kip1 rabbit polyclonal antibody and anti-Actin murine monoclonal antibody. Blots were developed.
Western Blot Analysis. The cyclin dependent kinase inhibitors known as p21^waf1 and p27^kip1 are able to inhibit the activity of cyclin kinase and thus slow the progression for the cells through the cell cycle. […] Exposure for one day to 1,25(OH)2 -16-ene-5,6-trans-D3 (10^-7 M) increased expression of p21^waf1 and p27^kip1 by about 3.2-3.5 fold, whereas culture with 1,25(OH)2 D3 (10^-7 M) increased expression of p21^waf1 and p27^kip1 about 1.6-1.8 fold. […] 1,25(OH)2 D3 (10^-7 M, 3 days) increased expression of p21^waf1 and p27^kip1 by 4.8 fold and 3.3 fold, respectively.
In general terms: A western blot detects proteins with antibodies after separation by electrophoresis.

The nature of data set [1]: Serum calcium levels in vivo, mice. More on the design: species or system male Balb/c mice. The note with it: for survival: 3 weeks of study. Here is the method:
Serum Calcium Levels in vivo. Twenty-eight male Balb/c mice at 8 to 9 weeks of age were maintained in pathogen-free conditions and fed a standard laboratory diet. Four mice per group were injected intraperitoneally every other day (except Saturday and Sunday) with either vitamin D3 compound or diluant (100 μl/mouse) for 3 weeks. Doses of 1,25(OH)2-16-ene-5,6-trans-D3 were: 0.1, 0.5, 1.0, and 2.0 μg. Doses of 1,25(OH)2 D3 were 0.1 μg/mouse. Control mice were injected with 100 μl of PBS. Serum calcium values were measured every week by the quantitative, colorimetric detection assay.
Serum Calcium Levels in vivo. Because hypercalcemia is a major toxicity of vitamin D3 compounds, the calcemic effects of 1,25(OH)2 D3 were compared with 1,25(OH)2 -16-ene-5,6-trans-D3.

The next data set has as its system MCF-7 cells. Briefly: Cell cycle analysis by flow cytometry. The data set is classed as cell-based. The conditions noted are these: 10^-7 M, 4 days. As for the experimental part:
Cell Cycle Analysis by Flow Cytometry. Cell cycle analysis was performed on MCF-7 cells incubated for 4 days with either 1,25(OH)2 D3 or 1,25(OH)2 -16-ene-5,6-trans-D3 at 10^-7 M. The cells were fixed in chilled methanol overnight before staining with 50 μg/ml propidium iodide, 1 mg/ml Rnase (100 units/ml) and 0.1% NP40. Analysis was performed immediately after staining. All experiments were done at least three times independently. All data were statistically analyzed by Student's test.
Cell cycle Analysis. Effect of 1,25(OH)2 -16-ene-5,6-trans-D3 and 1,25(OH)2 D3 (10^-7, 4 days) on the cell cycle of the MCF-7 cells was determined.
(A flow cytometer gives signals particle by particle.)

The next data set relates to ear total lipid fraction. Briefly: Total lipid fraction of hamster ear. The data set is classed as in vivo, Golden Syrian hamsters. The note with it: 4 weeks. Here is the method:
(§1) Two hundred μl of (1,25)OH2 -16-ene-5,6-trans D3 was dissolved in propylene glycol, administered daily (5 days per week) by gavage to […] Golden Syrian hamsters. The animals were sacrificed at 4 weeks and the ears were processed for histological evaluation. The area of the sebaceous glands was measured on histologically prepared cross sections of the ear by image analysis.
Also examined was the total lipid fraction from one of the ears (extraction by organic solvent followed by weighing the remaining lipid material).

Data set [2] has as its system breast cancer cell line (MCF-7). Briefly: Clonogenic assay in soft agar, MCF-7. The data set is classed as cell-based. The conditions noted are these: Homo sapiens, MCF7, MCF-7 cells, read-out: ED50 (effective dose that inhibited 50% colony formation). As for the experimental part:
(§2) Cell lines. The breast cancer cell line (MCF-7), prostate cancer cell line (LNCaP) and myeloid leukemia cell line (HL-60) were maintained as follows: MCF-7 cells were maintained in Dulbecco's Modified Eagle Media (DMEM) with 10% fetal calf serum (FCS); LNCaP and HL-60 were cultured in RPMI1640 with 10% FCS; All three cell lines were maintained in a 37° C. incubator containing 5% CO2.
(§3) Vitamin D3 Compounds. The vitamin D3 compounds were dissolved in absolute ethanol at 10^-3 M as stock solution, which were stored at -20° C. and protected from light. For in vitro use, compounds were diluted in DMEM or RPMI medium. For in vivo use, compounds were diluted with phosphate buffered saline (PBS). […]. Washed single-cell suspensions of cells were enumerated and plated into 24-well flat-bottomed plates with a total of […] cells/well in a volume of 400 μl/well. The feeder layer was prepared with agar that had been equilibrated at 42° C. Prior to this step, compounds were pipetted into wells. After incubation, the colonies were counted. All experiments were done at least three times using triplicate plates per experimental point.
(§4) Effect of Vitamin D3 analogs on Clonogenic Assay. […]

The nature of data set [3]: Serum calcium levels, adult female rats, day 7 of oral dosing. The data set is classed as in vivo. The note with it: for Serum Calcium Mean: vehicle 9.65. As for the experimental part:
Three month old adult female rats were used. […] On day 7 of dosing, animals were bled and serum calcium levels were determined. Compound was dissolved in 200 proof ethanol to produce a concentration of 100 μg/ml. […] Dose volume was calculated using the dosing group average body weight. Serial dilutions of vehicle dissolved compound were done to appropriate dosage concentrations. Blood (1.5 ml) was collected from each animal by orbital puncture under ether anesthesia on Day 7 of dosing. Blood was collected into serum separator tubes, centrifuged at 2000 rpm for 15 minutes and then serum aliquoted for calcium determinations. Serum calcium was determined by colorimetric assay.

For another data set, the system named is sebaceous glands. Briefly: Sebaceous gland area, hamster ear (image analysis). The data set is classed as in vivo, Golden Syrian hamsters. The conditions noted are these: 4 weeks. Here is the method:
as §1

Data set [4] has as its system LNCaP cells, MCF-7 cells and HL-60 cells. Kind of data set: Clonogenic assay, three cell lines together. It counts as cell-based. Here is the method:
as §2, §3, §4

In the case of `C=C1/C(=C\C=C2/CCC[C@]3(C)[C@@H]([C@H](C)CCCC(C)(C)O)CC[C@@H]23)C[C@@H](O)C[C@@H]1O` [1,25(OH)2 D3, reference compound], the fold induction at 0.1 µM in the data set on p27^kip1 (MCF7, 24 h) lay in the range of 1.6 to 1.8. Moreover, in the data set on p27^kip1 (MCF7, 72 h), the fold induction at 0.1 µM amounted to 3.3. Besides, the hypercalcemia result in data set [1] (0.1 μg/mouse i.p. every other day, 3 weeks) is given as “all hypercalcemic”. Further, the serum calcium level entry in data set [1] (0.1 μg/mouse i.p. every other day, 3 weeks, normal 8.5-10.5 mg/dl) was “approximately 12 mg/dl”. The survival entry in data set [1] is given as “All mice survived”. For the same compound, in the data set with MCF-7 cells, the “number of cells in the G0-G1 phase” value is given as “significant increase (P≤0.05)” and the “proportion of cells in S phase” value is listed as “concomitant decrease”.

Consider `C=C1/C(=C/C=C2\CCC[C@]3(C)C([C@H](C)CCCC(C)(C)O)=CC[C@@H]23)C[C@@H](O)C[C@@H]1O` [1,25(OH)2-16-ene-5,6-trans-D3, 1,25-Dihydroxy-16-ene-5,6-trans-cholecalciferol], for which the fold induction at 0.1 µM in the data set on p27^kip1 (MCF7, 24 h) is 3.2 to 3.5; with p27^kip1 (MCF7, 72 h) it was 3.4. The “total lipid fraction, % Change from Control” value with ear total lipid fraction (0.01 μg/day gavage) is listed as -26%; in the data set with ear total lipid fraction (0.1 μg/day gavage) it was -25%; in the data set with ear total lipid fraction (1 μg/day gavage) it was -37%; in the data set on ear total lipid fraction (10 μg/day gavage), -56%. Besides, the IC50 in data set [2] is 4.3 nM. Also, the “Serum Calcium Mean” value in data set [3] (0.5 μg/kg/day oral) stood at 10.64 mg/dL; in data set [3] (1 μg/kg/day oral), 10.06 mg/dL; in data set [3] (1.5 μg/kg/day oral), 9.92 mg/dL; in data set [3] (2 μg/kg/day oral), 9.77 mg/dL. Further, the serum calcium levels entry in data set [3] (up to 2 μg/kg/day oral) was “within the normal range”. For the same compound, the “sebaceous gland area, % Change from Control” value is listed as -5% with sebaceous glands (0.01 μg/day gavage), -23% in the data set on sebaceous glands (0.1 μg/day gavage), -50% in the data set on sebaceous glands (1 μg/day gavage) and -50% in the data set with sebaceous glands (10 μg/day gavage). In addition, the serum calcium level in data set [1] (0.1-2.0 μg/mouse i.p. every other day, 3 weeks, control mice 8-9 mg/dl) was in the range of 8 to 10 mg/dL. Also, in data set [1] (0.1-2.0 μg/mouse i.p., 3 weeks), the “serum calcium level compared with control mice” value is “almost the same calcium level”. Further, the survival entry in data set [1] is listed as “All mice survived”. In data set [4] (10^-11 to 10^-7 M), the “inhibition of clonal proliferation” value was “effective in inhibition of clonal proliferation of the three cell lines in a dose-dependent manner”. For the same compound, in data set [4] (vs 1,25(OH)2 D3, about), the “potency relative to 1,25(OH)2 D3 (fold more potent)” value was 10-100 fold. The “number of cells in the G0-G1 phase” value in the data set with MCF-7 cells was “significant increase (P≤0.05)”. In the data set with MCF-7 cells, the “proportion of cells in S phase” value was “concomitant decrease”.
